Reference: ChEMBL document CHEMBL4308844, “Allosteric Modulation of Class A GPCRs: Targets, Agents, and Emerging Concepts” (J Med Chem, 2018)

Experiments:
[1] = target: T1, Substance-K receptor (Homo sapiens) (UniProt P21452); test: Negative allosteric modulation of NK2 receptor (unknown origin) assessed as decrease in agonist-induced cAMP production at 10 uM by cell based FRET assay relative to control; type: functional
T1 sequence (whole entry): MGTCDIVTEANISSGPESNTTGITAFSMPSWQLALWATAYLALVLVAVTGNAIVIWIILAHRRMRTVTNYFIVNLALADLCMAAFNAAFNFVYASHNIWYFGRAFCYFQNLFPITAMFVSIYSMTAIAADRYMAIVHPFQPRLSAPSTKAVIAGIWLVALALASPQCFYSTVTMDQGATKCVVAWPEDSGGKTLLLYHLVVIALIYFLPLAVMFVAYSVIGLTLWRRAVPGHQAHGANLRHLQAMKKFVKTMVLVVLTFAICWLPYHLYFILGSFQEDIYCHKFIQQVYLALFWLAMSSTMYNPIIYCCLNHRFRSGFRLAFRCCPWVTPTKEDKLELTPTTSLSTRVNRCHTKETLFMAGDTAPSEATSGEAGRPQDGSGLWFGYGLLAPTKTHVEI

[2] = target: Cannabinoid receptor 1 (Homo sapiens) (UniProt P21554); test: Positive allosteric modulation of human CB1R assessed as potentiation of CP55940-induced calcium mobilization at […] by cell based assay relative to control; type: functional
[3] = target: T2, C-X-C chemokine receptor type 3 (Homo sapiens) (UniProt P49682); test: Inhibition of [3H]RAMX3 binding to CXCR3 (unknown origin) relative to control; settings: concentration not given here
T2 sequence (whole entry): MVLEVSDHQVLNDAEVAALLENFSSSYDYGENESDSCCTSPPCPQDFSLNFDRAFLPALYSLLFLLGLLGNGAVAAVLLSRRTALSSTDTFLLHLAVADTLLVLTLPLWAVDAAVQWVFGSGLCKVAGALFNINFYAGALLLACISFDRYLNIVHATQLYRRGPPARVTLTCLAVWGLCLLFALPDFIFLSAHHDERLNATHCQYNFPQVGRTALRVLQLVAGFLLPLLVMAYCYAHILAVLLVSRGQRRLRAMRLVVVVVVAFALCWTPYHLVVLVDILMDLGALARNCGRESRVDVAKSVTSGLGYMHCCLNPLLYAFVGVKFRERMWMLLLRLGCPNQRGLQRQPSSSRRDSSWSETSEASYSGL

[4] = target: T3, Muscarinic acetylcholine receptor M1 (Homo sapiens, UniProt P11229); test: Positive allosteric modulation of M1 AchR (unknown origin)
T3 sequence (P11229 whole entry): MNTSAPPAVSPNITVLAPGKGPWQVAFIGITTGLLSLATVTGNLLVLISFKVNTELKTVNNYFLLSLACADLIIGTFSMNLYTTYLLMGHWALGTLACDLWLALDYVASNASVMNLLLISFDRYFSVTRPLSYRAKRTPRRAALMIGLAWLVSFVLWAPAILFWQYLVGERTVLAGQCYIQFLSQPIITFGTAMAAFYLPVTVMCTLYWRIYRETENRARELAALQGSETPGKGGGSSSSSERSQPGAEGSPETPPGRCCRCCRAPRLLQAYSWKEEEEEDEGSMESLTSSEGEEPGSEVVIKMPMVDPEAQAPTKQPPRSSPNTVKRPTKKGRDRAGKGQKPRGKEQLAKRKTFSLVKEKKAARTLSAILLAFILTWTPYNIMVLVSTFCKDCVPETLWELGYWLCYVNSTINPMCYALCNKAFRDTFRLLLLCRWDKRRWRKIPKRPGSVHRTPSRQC

[5] = target: T4, Muscarinic acetylcholine receptor M4 (Rattus norvegicus, UniProt P08485); test: Positive allosteric modulation of rat M4 AchR
T4 sequence (P08485 whole entry): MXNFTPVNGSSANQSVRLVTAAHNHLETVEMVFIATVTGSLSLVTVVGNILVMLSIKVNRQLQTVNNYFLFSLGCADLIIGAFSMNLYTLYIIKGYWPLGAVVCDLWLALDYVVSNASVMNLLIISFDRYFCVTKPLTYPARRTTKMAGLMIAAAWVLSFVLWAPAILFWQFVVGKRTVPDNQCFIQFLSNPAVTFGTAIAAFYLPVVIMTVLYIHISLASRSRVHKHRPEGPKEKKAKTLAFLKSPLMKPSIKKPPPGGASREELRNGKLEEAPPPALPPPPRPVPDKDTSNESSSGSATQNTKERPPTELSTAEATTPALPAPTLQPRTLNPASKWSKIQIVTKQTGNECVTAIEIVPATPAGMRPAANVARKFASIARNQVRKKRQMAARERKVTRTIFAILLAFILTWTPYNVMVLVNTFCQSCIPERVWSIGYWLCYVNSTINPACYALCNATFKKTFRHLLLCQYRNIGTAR

[6] = target: T5, Muscarinic acetylcholine receptor M4 (Homo sapiens, UniProt P08173); test: Positive allosteric modulation of human M4 AchR
T5 sequence (P08173 whole entry): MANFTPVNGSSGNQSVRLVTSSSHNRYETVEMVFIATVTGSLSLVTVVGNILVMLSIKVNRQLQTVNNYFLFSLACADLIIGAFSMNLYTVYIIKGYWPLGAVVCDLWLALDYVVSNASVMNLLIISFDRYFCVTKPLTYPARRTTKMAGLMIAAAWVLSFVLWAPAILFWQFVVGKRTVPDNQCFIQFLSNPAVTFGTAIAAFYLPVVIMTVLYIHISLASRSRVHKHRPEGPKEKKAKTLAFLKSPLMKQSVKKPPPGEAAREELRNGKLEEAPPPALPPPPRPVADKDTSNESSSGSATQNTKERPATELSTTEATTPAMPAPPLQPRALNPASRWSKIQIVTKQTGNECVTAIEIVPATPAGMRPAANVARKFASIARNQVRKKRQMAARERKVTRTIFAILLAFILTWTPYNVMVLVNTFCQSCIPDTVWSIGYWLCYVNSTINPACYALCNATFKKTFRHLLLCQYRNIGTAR

[7] = target: D(2) dopamine receptor (Homo sapiens) (UniProt P14416); test: Negative allosteric modulation of D2R (unknown origin) assessed as decrease in [3H]NPA binding at 1 uM relative to control
[8] = target: D(2) dopamine receptor (Homo sapiens) (UniProt P14416); test: Negative allosteric modulation of D2R (unknown origin) assessed as decrease in [3H]NPA binding at 10 uM relative to control
[9] = target: T6, Muscarinic acetylcholine receptor M4 (Homo sapiens) (UniProt P08173); test: Positive allosteric modulation of human M4 AchR expressed in CHO cells assessed as increase in acteylcholine-induced calcium mobilization by FLIPR assay; type: functional, cell-based
T6 sequence (whole entry): T5 sequence (P08173 whole entry)

[10] = target: T7, 5-hydroxytryptamine receptor 2C (Homo sapiens) (UniProt P28335); test: Positive allosteric modulation of 5-HT2C receptor (unknown origin) assessed as increase in 5-HT-induced displacement of [3H]mesulergine by measuring fold reduction in 5-HT Ki at 20 uM relative to control
T7 sequence (whole entry): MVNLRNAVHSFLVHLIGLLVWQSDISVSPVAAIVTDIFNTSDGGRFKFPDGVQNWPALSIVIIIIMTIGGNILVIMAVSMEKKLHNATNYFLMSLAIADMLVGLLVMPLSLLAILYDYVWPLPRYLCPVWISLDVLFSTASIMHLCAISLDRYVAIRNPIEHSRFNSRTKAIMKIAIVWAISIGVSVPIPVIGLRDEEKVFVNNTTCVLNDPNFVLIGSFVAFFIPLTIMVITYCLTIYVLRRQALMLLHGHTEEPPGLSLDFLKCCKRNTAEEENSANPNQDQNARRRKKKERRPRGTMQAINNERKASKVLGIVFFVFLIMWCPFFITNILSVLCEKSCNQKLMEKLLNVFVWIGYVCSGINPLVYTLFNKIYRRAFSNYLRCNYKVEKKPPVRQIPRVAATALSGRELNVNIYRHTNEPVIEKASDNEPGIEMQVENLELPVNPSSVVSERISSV

[11] = target: T7, 5-hydroxytryptamine receptor 2C (Homo sapiens); test: Agonist activity at 5-HT2C receptor (unknown origin) expressed in HEK293 cells assessed as IP3 release at 10 uM relative to 5-HT maximal response
[12] = target: T8, Muscarinic acetylcholine receptor M5 (Homo sapiens) (UniProt P08912); test: Positive allosteric modulation of M5 AchR (unknown origin) assessed as increase in acetylcholine-induced response relative to control
T8 sequence (whole entry): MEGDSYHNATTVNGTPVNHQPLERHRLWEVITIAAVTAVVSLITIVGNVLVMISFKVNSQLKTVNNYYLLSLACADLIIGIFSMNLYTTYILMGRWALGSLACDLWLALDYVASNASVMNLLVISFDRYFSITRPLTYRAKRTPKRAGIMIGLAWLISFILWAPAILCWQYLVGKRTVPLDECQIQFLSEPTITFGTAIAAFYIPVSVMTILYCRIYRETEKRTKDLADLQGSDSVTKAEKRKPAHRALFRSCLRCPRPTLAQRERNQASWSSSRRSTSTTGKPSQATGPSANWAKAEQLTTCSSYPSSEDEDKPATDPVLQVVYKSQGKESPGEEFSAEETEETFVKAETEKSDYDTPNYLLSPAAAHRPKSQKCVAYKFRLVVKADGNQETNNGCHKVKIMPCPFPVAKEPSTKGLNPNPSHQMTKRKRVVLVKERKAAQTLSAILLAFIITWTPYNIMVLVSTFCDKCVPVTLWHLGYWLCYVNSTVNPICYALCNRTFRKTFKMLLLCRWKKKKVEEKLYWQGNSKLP

[13] = target: Cannabinoid receptor 1 (Mus musculus) (UniProt P47746); test: Positive allosteric modulation of CB1R in MF1 mouse brain membranes assessed as increase in anandamide-stimulated [35S]GTPgammaS binding after 60 mins relative to control; type: functional, cell membranes
[14] = target: Cannabinoid receptor 1 (Mus musculus) (UniProt P47746); test: Positive allosteric modulation of CB1R in MF1 mouse brain membranes assessed as increase in [3H]WIN55212-2 binding after 60 mins relative to control; type: cell membranes
[15] = target: Cannabinoid receptor 1 (Mus musculus) (UniProt P47746); test: Positive allosteric modulation of CB1R in MF1 mouse brain membranes assessed as increase in [3H]CP55940 binding after 60 mins relative to control; type: cell membranes
[16] = target: T9, C-X-C chemokine receptor type 1 (Homo sapiens, UniProt P25024); test: Inhibition of CXCR1 (unknown origin)
T9 sequence (P25024 whole entry): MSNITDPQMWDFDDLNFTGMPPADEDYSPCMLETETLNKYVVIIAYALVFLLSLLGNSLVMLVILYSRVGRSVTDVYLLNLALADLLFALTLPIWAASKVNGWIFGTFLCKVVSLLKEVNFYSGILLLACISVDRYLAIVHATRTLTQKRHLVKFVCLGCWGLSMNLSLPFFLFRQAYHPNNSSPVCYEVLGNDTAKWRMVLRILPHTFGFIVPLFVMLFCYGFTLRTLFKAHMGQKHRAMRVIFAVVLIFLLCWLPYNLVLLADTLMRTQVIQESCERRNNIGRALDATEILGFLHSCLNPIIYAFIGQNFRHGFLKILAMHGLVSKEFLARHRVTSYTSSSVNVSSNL

[17] = target: T10, C-X-C chemokine receptor type 2 (Homo sapiens, UniProt P25025); test: Inhibition of CXCR2 (unknown origin)
T10 sequence (P25025 whole entry): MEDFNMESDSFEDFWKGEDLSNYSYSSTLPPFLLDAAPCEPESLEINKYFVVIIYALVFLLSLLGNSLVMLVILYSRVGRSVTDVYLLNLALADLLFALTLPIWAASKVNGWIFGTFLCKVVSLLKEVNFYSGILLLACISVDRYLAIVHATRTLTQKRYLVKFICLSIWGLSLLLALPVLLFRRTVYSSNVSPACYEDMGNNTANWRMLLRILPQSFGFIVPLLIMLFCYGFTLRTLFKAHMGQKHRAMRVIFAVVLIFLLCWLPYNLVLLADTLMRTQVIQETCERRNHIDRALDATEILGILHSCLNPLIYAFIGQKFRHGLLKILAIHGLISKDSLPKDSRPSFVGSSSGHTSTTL

Sequence of Cannabinoid receptor 1 (Mus musculus) (P47746 whole entry): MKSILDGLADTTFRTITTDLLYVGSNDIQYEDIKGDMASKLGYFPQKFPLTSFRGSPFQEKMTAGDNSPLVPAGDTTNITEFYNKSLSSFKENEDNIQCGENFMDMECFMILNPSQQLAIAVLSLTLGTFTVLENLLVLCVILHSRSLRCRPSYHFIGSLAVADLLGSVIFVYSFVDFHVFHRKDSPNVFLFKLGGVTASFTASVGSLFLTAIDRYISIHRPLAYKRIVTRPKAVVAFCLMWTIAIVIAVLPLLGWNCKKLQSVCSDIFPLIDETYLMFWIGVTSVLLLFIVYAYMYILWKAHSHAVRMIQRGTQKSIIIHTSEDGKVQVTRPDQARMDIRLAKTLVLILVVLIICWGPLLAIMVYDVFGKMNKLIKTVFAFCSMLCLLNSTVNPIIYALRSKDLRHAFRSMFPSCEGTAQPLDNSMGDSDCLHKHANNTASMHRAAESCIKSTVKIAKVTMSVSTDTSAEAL
Sequence of D(2) dopamine receptor (Homo sapiens) (P14416 whole entry): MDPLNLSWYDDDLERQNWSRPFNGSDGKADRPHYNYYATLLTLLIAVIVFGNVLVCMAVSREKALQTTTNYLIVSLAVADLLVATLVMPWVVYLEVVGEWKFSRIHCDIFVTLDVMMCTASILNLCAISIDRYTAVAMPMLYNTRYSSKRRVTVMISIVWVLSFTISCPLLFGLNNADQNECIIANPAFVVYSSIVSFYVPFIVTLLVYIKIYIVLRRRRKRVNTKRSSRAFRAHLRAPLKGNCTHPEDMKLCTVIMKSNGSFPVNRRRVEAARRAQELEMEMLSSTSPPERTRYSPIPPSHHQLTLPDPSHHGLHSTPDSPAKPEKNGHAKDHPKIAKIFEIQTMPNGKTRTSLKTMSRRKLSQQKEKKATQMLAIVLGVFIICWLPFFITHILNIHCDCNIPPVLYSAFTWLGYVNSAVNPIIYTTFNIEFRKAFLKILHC
Sequence of Cannabinoid receptor 1 (Homo sapiens) (P21554 whole entry): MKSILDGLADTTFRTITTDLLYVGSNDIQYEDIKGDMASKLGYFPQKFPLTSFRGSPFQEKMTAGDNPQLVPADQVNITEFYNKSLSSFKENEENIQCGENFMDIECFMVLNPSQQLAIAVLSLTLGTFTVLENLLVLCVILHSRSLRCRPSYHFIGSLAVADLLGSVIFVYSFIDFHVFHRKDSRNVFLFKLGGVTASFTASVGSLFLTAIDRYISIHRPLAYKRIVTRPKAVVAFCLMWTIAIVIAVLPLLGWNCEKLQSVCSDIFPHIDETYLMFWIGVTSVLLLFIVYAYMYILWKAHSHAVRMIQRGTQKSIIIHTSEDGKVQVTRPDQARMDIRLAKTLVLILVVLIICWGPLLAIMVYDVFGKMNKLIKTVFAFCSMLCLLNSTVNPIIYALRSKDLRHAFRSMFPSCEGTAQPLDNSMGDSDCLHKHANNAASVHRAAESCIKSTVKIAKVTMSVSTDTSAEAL

Structure (SMILES): N#CCN(Cc1ccccc1)Cc1ccc2ccccc2c1
- inhibition [1]: 30%

Structure (SMILES): Cc1ccc([C@H]2CC3CCC([C@H]2c2cc(-c4ccc(Cl)cc4)no2)N3C)cc1 (stereo not given in full)
- Emax [2]: 36%

Structure (SMILES): CCOc1ccc(-n2c(C(C)N(CC3CCN(Cc4ccc(C5(C(F)(F)F)N=N5)cc4)CC3)C(=O)Cc3ccc(F)c(C(F)(F)F)c3)nc3ncccc3c2=O)cc1 (stereo not given)
- inhibition [3]: 80%

Structure (SMILES): COc1ccc(Cn2cc(C(=O)N[C@H]3CCCC[C@@H]3O)c3ncccc32)cc1
- EC50 [4]: 1800 nM

Structure (SMILES): Cc1cc(OCc2ccncc2)nc2sc(C(=O)NCc3cccc(F)c3F)c(N)c12
- EC50 [5]: 2400 nM
- EC50 [6]: 95 nM

Structure (SMILES): CC1(C)S[C@@H]2CC[C@]3(CCCN3C(=O)[C@@H]3CCCN3)C(=O)N2[C@H]1C(N)=O
- fold change (FC) [7]: 2.7
- fold change (FC) [8]: 2.8

Structure (SMILES): Cc1cc(NC(=O)CS(=O)(=O)c2cn(Cc3ccc(-c4cnn(C)c4)nc3)c3cc(F)cc(F)c23)no1
- EC50 [4]: 310 nM

Structure (SMILES): COc1nc2sc(C(=O)NC3CC3)c(N)c2c(C)c1Cl
- Kb [9]: 200 nM

Structure (SMILES): CCCCCCCCCCC[C@@H]1CCN[C@H](C(=O)N[C@@H]([C@H]2O[C@H](SC)[C@H](O)[C@@H](O)[C@H]2O)[C@H](C)Cl)C1
- fold change (FC) [10]: 25
- Emax [11]: < 71%

Structure (SMILES): CCN(Cc1ccccc1C(F)(F)F)C(=O)C1CCN(S(=O)(=O)c2ccc3[nH]ncc3c2)CC1
- fold change (FC) [12]: 9.3

Structure (SMILES): Cc1ccc2c(C(C[N+](=O)[O-])c3cccs3)c(-c3ccccc3)[nH]c2c1 (stereo not given)
- Activity [13]: 40%
- Emax [14]: 225%
- Emax [15]: 207%

Structure (SMILES): CC1(C)S[C@@H]2CC[C@]3(CCCN3C(=O)[C@@H]3CCCN3)C(=O)N2[C@@H]1C(N)=O
- fold change (FC) [7]: 2.7
- fold change (FC) [8]: 2.8

Structure (SMILES): C[C@@H](C(=O)NS(C)(=O)=O)c1ccc(OS(=O)(=O)C(F)(F)F)cc1
- IC50 [16]: 0.1 nM
- IC50 [17]: 0.1 nM
